Experimental data as given in ChEMBL document CHEMBL1131009, “Structure-activity relationship studies of novel carbocyclic influenza neuraminidase inhibitors” (J Med Chem, 1998).

target: Neuraminidase (Influenza A virus (A/Puerto Rico/8/1934(H1N1)), UniProt P03468); experiment: Inhibitory activity against influenza A neuraminidase from influenza A/PR/8/34 (H1N1).; parameters: species or system Influenza A virus (strain: A/PR/8/34)

Going from `CCCCCCCCCO[C@@H]1C=C(C(=O)O)C[C@H](N)[C@H]1NC(C)=O` to `CCCCCCCCCCO[C@@H]1C=C(C(=O)O)C[C@H](N)[C@H]1NC(C)=O`, the IC50 rises from 210 nM to 600 nM (2.9-fold). The first is the more potent here.

Compared with `CC(=O)N[C@@H]1[C@@H](N)CC(C(=O)O)=C[C@H]1OCC(C)C`, `CCO[C@@H]1C=C(C(=O)O)C[C@H](N)[C@H]1NC(C)=O` is 10-fold higher in IC50: 200 nM for the first, 2000 nM for the second.

`CC(=O)N[C@@H]1[C@@H](N)CC(C(=O)O)=C[C@H]1OC(CCCc1ccccc1)CCCc1ccccc1` and `CC(=O)N[C@@H]1[C@@H](N)CC(C(=O)O)=C[C@H]1OC(Cc1ccccc1)Cc1ccccc1` cannot be ordered by IC50: over 1000 nM for the first, over 1000 nM for the second.

First: CCC(CC)O[C@@H]1C=C(C(=O)O)[C@@H](C)[C@H](N)[C@H]1NC(C)=O
Second: CCC(CC)O[C@@H]1C(C)=C(C(=O)O)C[C@H](N)[C@H]1NC(C)=O
The IC50 of the first is 1.5-fold lower: 1500 nM for the first, 2300 nM for the second. The first is the more potent here.

`CC[C@H](C)O[C@@H]1C=C(C(=O)O)C[C@H](N)[C@H]1NC(C)=O` and `CC[C@@H](C)O[C@@H]1C=C(C(=O)O)C[C@H](N)[C@H]1NC(C)=O` are within 1.5-fold of each other in IC50: 9 nM for the first, 10 nM for the second.

First: CCC(CC)O[C@@H]1C(F)=C(C(=O)O)C[C@H](N)[C@H]1NC(C)=O
Second: CCCCCCC[C@H](CC)O[C@@H]1C=C(C(=O)O)C[C@H](N)[C@H]1NC(C)=O
The IC50 of the first is 3-fold higher: 3 nM for the first, 1 nM for the second.

First: CC(=O)N[C@@H]1[C@@H](N)CC(C(=O)O)=C[C@H]1OCCCc1ccc(-c2ccccc2)cc1
Second: CC(=O)N[C@@H]1[C@@H](N)CC(C(=O)O)=C[C@H]1OCc1ccccc1
The IC50 of the first is 6.9-fold lower: 90 nM for the first, 620 nM for the second.

Going from `CC[C@H](CCc1ccccc1)O[C@@H]1C=C(C(=O)O)C[C@H](N)[C@H]1NC(C)=O` to `CC[C@@H](CCc1ccccc1)O[C@@H]1C=C(C(=O)O)C[C@H](N)[C@H]1NC(C)=O`, the IC50 falls from 12 nM to 0.3 nM (40-fold).

Going from `CCCCCCCCO[C@@H]1C=C(C(=O)O)C[C@H](N)[C@H]1NC(C)=O` to `CCCCCCCO[C@@H]1C=C(C(=O)O)C[C@H](N)[C@H]1NC(C)=O`, the IC50 rises from 180 nM to 270 nM (1.5-fold).

First: CCCCO[C@@H]1C=C(C(=O)O)C[C@H](N)[C@H]1NC(C)=O
Second: CCCCCO[C@@H]1C=C(C(=O)O)C[C@H](N)[C@H]1NC(C)=O
The IC50 of the first is 1.5-fold higher: 300 nM for the first, 200 nM for the second.

Going from `CC[C@@H](CC1CCCCC1)O[C@@H]1C=C(C(=O)O)C[C@H](N)[C@H]1NC(C)=O` to `CC[C@@H](CCC1CCCCC1)O[C@@H]1C=C(C(=O)O)C[C@H](N)[C@H]1NC(C)=O`, the IC50 falls from 16 nM to 1 nM (16-fold). The second is the more potent here.

Going from `CO[C@@H]1C=C(C(=O)O)C[C@H](N)[C@H]1NC(C)=O` to `CCCO[C@@H]1C=C(C(=O)O)C[C@H](N)[C@H]1NC(C)=O`, the IC50 falls from 3700 nM to 180 nM (21-fold).

First: CCCO[C@@H]1C=C(C(=O)O)C[C@H](N=C(N)N)[C@H]1NC(C)=O
Second: CCCCO[C@@H]1C=C(C(=O)O)C[C@H](N=C(N)N)[C@H]1NC(C)=O
The IC50 of the first is 1.5-fold lower: 2 nM for the first, 3 nM for the second.

First: CC(=O)N[C@H]1[C@H](O)C=C(C(=O)O)C[C@@H]1N
Second: CC(=O)N[C@H]1[C@H](O)C=C(C(=O)O)C[C@@H]1N=C(N)N
The IC50 of the first is 63-fold higher: 6300 nM for the first, 100 nM for the second. The second is the more potent here.

Going from `CC[C@@H](C)O[C@@H]1C=C(C(=O)O)C[C@H](NC(=N)N)[C@H]1NC(C)=O` (stereo in doubt; 61) to `CCCCCCO[C@@H]1C=C(C(=O)O)C[C@H](N)[C@H]1NC(C)=O`, the IC50 rises from 0.5 nM to 150 nM (300-fold).
